Experimental data: the supplement of paper PMC10307832

How the values were obtained:
Assay in all cases: relative viability (nuclei count vs DMSO), 5 days (fraction); higher = more cells survive
NCI-H2087 = tested on: NCI-H2087
In short: (§1)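 Cells from lung cancer lines were seeded into 1536-well plates and, one day later, dosed by pin tool. Treatments were either a single drug or a fixed dose of an anchor drug with five library-drug doses (not always all listed) in √10 steps. After 5 days, nuclei were stained in a one-step fixation (final 0.05% Triton X-100, 1% formaldehyde, 1 ug/ml Hoechst) and counted on 4× images, and relative viability is the treated-to-vehicle nuclei ratio, as the median of duplicate plates.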

HOP-62 = tested on: HOP-62
In short: as §1

NCI-H647 = tested on: NCI-H647
In short: as §1

SW 1573 = tested on: SW 1573
In short: as §1

PC-3 [JPC-3] = tested on: PC-3 [JPC-3]
In short: as §1

LOU-NH91 = tested on: LOU-NH91
In short: as §1

H3255 = tested on: H3255
In short: as §1

NCI-H1395 = tested on: NCI-H1395
In short: as §1

NCI-H1975 = tested on: NCI-H1975
In short: as §1

EKVX = tested on: EKVX
In short: as §1

EPLC-272H = tested on: EPLC-272H
In short: as §1

BEN = tested on: BEN
In short: as §1

HCC-827 = tested on: HCC-827
In short: as §1

NCI-H1437 = tested on: NCI-H1437
In short: as §1

NCI-H2126 = tested on: NCI-H2126
In short: as §1

COR-L 105 = tested on: COR-L 105
In short: as §1

LCLC-97TM1 = tested on: LCLC-97TM1
In short: as §1

NCI-H1666 = tested on: NCI-H1666
In short: as §1

NCI-H2085 = tested on: NCI-H2085
In short: as §1

201T = tested on: 201T
In short: as §1

LU99A = tested on: LU99A
In short: as §1

HCC-44 = tested on: HCC-44
In short: as §1

SMILES: COc1cc(N2CCC(C(N)=O)CC2)ccc1Nc1nc(N)c(Cl)c(Nc2ccccc2S(=O)(=O)C(C)C)n1 [HG-5-88-01] + CC1(C)CCC(c2ccc(Cl)cc2)=C(CN2CCN(c3ccc(C(=O)NS(=O)(=O)c4ccc(N[C@H](CCN5CCOCC5)CSc5ccccc5)c(S(=O)(=O)C(F)(F)F)c4)cc3)CC2)C1 [Navitoclax] (partner 0.5 µM)
- relative viability (NCI-H2087; first compound 0.04 µM): 0.902
- relative viability (NCI-H2087; first compound 0.1265 µM): 1.06
- relative viability (NCI-H2087; first compound 0.4 µM): 1.03
- relative viability (NCI-H2087; first compound 1.265 µM): 0.971
- relative viability (NCI-H2087; first compound 4 µM): 0.943
- relative viability (HOP-62; first compound 0.04 µM): 0.987
- relative viability (HOP-62; first compound 0.1265 µM): 0.948
- relative viability (HOP-62; first compound 0.4 µM): 0.986
- relative viability (HOP-62; first compound 1.265 µM): 0.919
- relative viability (HOP-62; first compound 4 µM): 1.01
- relative viability (NCI-H647; first compound 0.04 µM): 1.19
- relative viability (NCI-H647; first compound 0.1265 µM): 1.26
- relative viability (NCI-H647; first compound 0.4 µM): 1.24
- relative viability (NCI-H647; first compound 1.265 µM): 1.27
- relative viability (NCI-H647; first compound 4 µM): 1.13
- relative viability (SW 1573; first compound 0.04 µM): 0.952
- relative viability (SW 1573; first compound 0.1265 µM): 1.05
- relative viability (SW 1573; first compound 0.4 µM): 0.9
- relative viability (SW 1573; first compound 1.265 µM): 0.996
- relative viability (SW 1573; first compound 4 µM): 0.863
- relative viability (PC-3 [JPC-3]; first compound 0.04 µM): 0.837
- relative viability (PC-3 [JPC-3]; first compound 0.1265 µM): 0.83
- relative viability (PC-3 [JPC-3]; first compound 0.4 µM): 0.841
- relative viability (PC-3 [JPC-3]; first compound 1.265 µM): 0.753
- relative viability (PC-3 [JPC-3]; first compound 4 µM): 0.751
- relative viability (LOU-NH91; first compound 0.04 µM): 0.72
- relative viability (LOU-NH91; first compound 0.1265 µM): 0.693
- relative viability (LOU-NH91; first compound 0.4 µM): 0.605
- relative viability (LOU-NH91; first compound 1.265 µM): 0.378
- relative viability (LOU-NH91; first compound 4 µM): 0.468
- relative viability (H3255; first compound 0.04 µM): 0.506
- relative viability (H3255; first compound 0.1265 µM): 0.467
- relative viability (H3255; first compound 0.4 µM): 0.428
- relative viability (H3255; first compound 4 µM): 0.138
- relative viability (NCI-H1395; first compound 0.04 µM): 1.08
- relative viability (NCI-H1395; first compound 0.1265 µM): 1.18
- relative viability (NCI-H1395; first compound 0.4 µM): 1.25
- relative viability (NCI-H1395; first compound 1.265 µM): 1.03
- relative viability (NCI-H1395; first compound 4 µM): 1.09
- relative viability (NCI-H1975; first compound 0.04 µM): 1.13
- relative viability (NCI-H1975; first compound 0.1265 µM): 1.15
- relative viability (NCI-H1975; first compound 0.4 µM): 1.09
- relative viability (NCI-H1975; first compound 1.265 µM): 0.858
- relative viability (NCI-H1975; first compound 4 µM): 0.352
- relative viability (EKVX; first compound 0.04 µM): 1.03
- relative viability (EKVX; first compound 0.1265 µM): 0.952
- relative viability (EKVX; first compound 0.4 µM): 0.634
- relative viability (EKVX; first compound 4 µM): 0.839
- relative viability (EPLC-272H; first compound 0.04 µM): 1.22
- relative viability (EPLC-272H; first compound 0.1265 µM): 1.05
- relative viability (EPLC-272H; first compound 0.4 µM): 1.28
- relative viability (EPLC-272H; first compound 1.265 µM): 0.982
- relative viability (EPLC-272H; first compound 4 µM): 0.27
- relative viability (BEN; first compound 0.04 µM): 0.0887
- relative viability (BEN; first compound 0.1265 µM): 0.0551
- relative viability (BEN; first compound 0.4 µM): 0.0596
- relative viability (BEN; first compound 1.265 µM): 0.0568
- relative viability (BEN; first compound 4 µM): 0.0605
- relative viability (HCC-827; first compound 0.04 µM): 0.997
- relative viability (HCC-827; first compound 0.1265 µM): 1.04
- relative viability (HCC-827; first compound 0.4 µM): 1.03
- relative viability (HCC-827; first compound 1.265 µM): 1.02
- relative viability (HCC-827; first compound 4 µM): 0.723
- relative viability (NCI-H1437; first compound 0.04 µM): 1.1
- relative viability (NCI-H1437; first compound 0.1265 µM): 1.11
- relative viability (NCI-H1437; first compound 0.4 µM): 1.05
- relative viability (NCI-H1437; first compound 1.265 µM): 1.04
- relative viability (NCI-H1437; first compound 4 µM): 1.02
- relative viability (NCI-H2126; first compound 0.04 µM): 0.88
- relative viability (NCI-H2126; first compound 0.1265 µM): 0.882
- relative viability (NCI-H2126; first compound 0.4 µM): 0.753
- relative viability (NCI-H2126; first compound 1.265 µM): 0.84
- relative viability (NCI-H2126; first compound 4 µM): 0.794
- relative viability (COR-L 105; first compound 0.04 µM): 0.644
- relative viability (COR-L 105; first compound 0.1265 µM): 0.833
- relative viability (COR-L 105; first compound 0.4 µM): 0.838
- relative viability (COR-L 105; first compound 1.265 µM): 0.645
- relative viability (COR-L 105; first compound 4 µM): 0.809
- relative viability (LCLC-97TM1; first compound 0.04 µM): 0.374
- relative viability (LCLC-97TM1; first compound 0.1265 µM): 0.689
- relative viability (LCLC-97TM1; first compound 0.4 µM): 0.347
- relative viability (LCLC-97TM1; first compound 1.265 µM): 0.296
- relative viability (LCLC-97TM1; first compound 4 µM): 0.321
- relative viability (NCI-H1666; first compound 0.04 µM): 1.14
- relative viability (NCI-H1666; first compound 0.1265 µM): 1.01
- relative viability (NCI-H1666; first compound 0.4 µM): 1.01
- relative viability (NCI-H1666; first compound 1.265 µM): 0.877
- relative viability (NCI-H1666; first compound 4 µM): 0.603
- relative viability (NCI-H2085; first compound 0.04 µM): 1.2
- relative viability (NCI-H2085; first compound 0.1265 µM): 1.26
- relative viability (NCI-H2085; first compound 0.4 µM): 1.06
- relative viability (NCI-H2085; first compound 1.265 µM): 0.873
- relative viability (NCI-H2085; first compound 4 µM): 1.13
- relative viability (201T; first compound 0.04 µM): 1.22
- relative viability (201T; first compound 0.1265 µM): 1.22
- relative viability (201T; first compound 0.4 µM): 1.28
- relative viability (201T; first compound 1.265 µM): 1.18
- relative viability (201T; first compound 4 µM): 1.17
- relative viability (LU99A; first compound 0.04 µM): 0.781
- relative viability (LU99A; first compound 0.1265 µM): 0.96
- relative viability (LU99A; first compound 0.4 µM): 0.75
- relative viability (LU99A; first compound 1.265 µM): 0.764
- relative viability (LU99A; first compound 4 µM): 0.996
- relative viability (HCC-44; first compound 0.04 µM): 1.07
- relative viability (HCC-44; first compound 0.1265 µM): 1.03
- relative viability (HCC-44; first compound 0.4 µM): 0.77
- relative viability (HCC-44; first compound 1.265 µM): 0.922
- relative viability (HCC-44; first compound 4 µM): 0.846
